Ten compounds from patent US5344841A, “Bis-(hydroxylakylamino)-anthraquinone inhibitors of protein kinase C” (Sphinx Pharmaceuticals Corporation, priority 1992, dated 1994) can be followed below.

For one assay, the target named is protein kinase C. Briefly: Protein kinase C (PKC) inhibition assay (histone H1 phosphorylation). Conditions: rat brain PKC, histone H1 substrate. Type of assay: biochemical. As for the experimental part:
The protein kinase C (PKC) assay is designed to duplicated the in vivo conditions required for protein kinase C function. Therefore, pH, salt and cofactor concentrations are similar to physiologic levels. Histone H1 (lysine rich) is used in the assay as the phosphorylation acceptor protein because it is readily available and serves as a good substrate for protein kinase C. The enzyme is prepared from rat brain and is purified to apparent homogeneity as determined by a single band on silver stained SDS-polyacrylamide. Studies on the mechanism of regulation of protein kinase C by phospholipids, DAG and Ca^+2 have been hampered by the physical properties of the lipid cofactors. In the screening assay, phosphatidylserine (PS) and DAG are cosonicated to form unilamellar and multilamellar vesicles. The concentration of lipids in the assay are suboptimal to maximize the detection potential of the assay for inhibitors. […] The assay is started with the addition of enzyme and stopped after 10 min by the addition of 25% trichloroacetic acid (TCA) and 1.0 mg/ml bovine serum albumin (BSA). The radioactive histone product is retained and washed on glass fiber filters that allow the unreacted ^32 P-ATP to pass through. The amount of phosphorylation is determined by the radioactivity measured in a scintillation counter. Controls are included in every assay to measure background activity in the absence of enzyme, activity in the absence of lipids and the maximum enzyme activity with saturating levels of the activator lipids.

The next assay has as its system human neutrophils. Description: Neutrophil superoxide anion (O2-) release assay, PMA-stimulated. Type of assay: cell-based. Conditions: PMA-stimulated O2- production. As for the experimental part:
Neutrophils were isolated form whole blood collected from human volunteers. All reagent materials were obtained from Sigma Chemical Company with the exception of isotonic saline (Travenol Lab., Inc. Deerfield, Ill.) and lymphocyte separation medium (Organon Teknika, Durham, N.C.). Whole blood was drawn and mixed with sodium heparin (final conc. 10 units/ml) to prevent clotting. An equal volume of dextran (3.0%) in isotonic saline was added, mixed, and allowed to settle for 30 min to bind red blood cells (RBC). The supernatant was removed, underlayered with lymphocyte separation medium and centrifuged for 40 min at 400 xg in a centrifuge (Beckman GPR, Norcross, Ga.). […] The washed pellet was resuspended in 10 ml HBSS and placed on ice before counting on a hemacytometer. The neutrophil cell concentration is adjusted to 2×10^6 cells/ml with HBSS before adding 0.8 ml cells to 12×75 mm polypropylene test tubes (Fisher Scientific). Test agents are diluted to determine dose response and added at 10×final concentration at a volume of 0.1 ml/tube in duplicate. […] Tubes are then centrifuged at 900 xg for 10 min, 0.5 ml supernatant is removed and added to 0.5 ml H2 O in a microcuvette. Optical density (OD) of cytochrome c is read in a spectrophotometer (Shimadzu) at 550 nm. The ΔOD of cytochrome c is obtained between PMA-stimulated and non-stimulated tubes, and the dose responses of the test agents are compared to the positive controls (which contain HBSS in place of test agents). PMA stimulates O2^- production which reduces cytochrome c. Reducing cytochrome c increases its absorbance, and the change in OD of cytochrome c is proportional to the amount of O2^- produced by PMA stimulation. Inhibition of the O2^- burst by test compounds of the invention is seen as a reduction in the change in optical density. Inhibition is expressed as IC50 μM and is the amount of test compound that will inhibit fifty percent of the PMA-stimulated respiratory outburst, i.e. O2^- production.

Assay [1] relates to MCF-7 human breast tumor cell line. Briefly: Human tumor growth inhibition, 3H-thymidine incorporation, MCF-7. Conditions: Homo sapiens, MCF7, 3 h, read-out: IC50 MCF-7. Type of assay: cell-based. The text has this:
(§1) MCF-7 a human breast tumor cell line, and MCF-7/ADR an adriamycin resistant line of MCF-7 cells were obtained from the National Cancer Institute, Frederick, Md. NHEK a human keratinocyte cell line was obtained from Clonetic Corp., San Diego, Calif. 8226 a human myeloma cell line, 8226/MT a Mitoxantrone resistant line of 8226 cells, and 8226 ADR an adriamycin resistant line of 8226 cells were obtained from Dr. Bill Dalton, Arizona Cancer Center, Tuscon, Ariz.
(§2) Human tumor cells are trypsinized (0.05% trypsin, GIBCO), counted with a hemacytometer and seeded at a concentration of 10,000 cells/well in a 96 well microtiter plate. After allowing cells to attach to the surface overnight, the culture medium is aspirated and replaced with 100 μl of fresh medium. Test agents are diluted to determine dose response at 2× final concentration and added in quadruplicate at 100 μl/well to bring the total volume of each well to 200 μl. The microtiter plate is then incubated at 37° C. 5% CO2 overnight (18-24 hrs) before ^3 H-thymidine is added at a concentration of 0.5 μCi/well in 50 μl culture medium. The plate is incubated again for 4 hrs under the same conditions as above. Supernatant is then aspirated and 50 μl trypsin (0.05%, GIBCO) is added to each well. Cells are checked microscopically to determine detachment from surfaces, and plates are then harvested with a cell harvester (PHD, Cambridge Technology, Inc.) Filter papers corresponding to wells are placed in scintillation vials and counted to determine the amount of ^3 H-thymidine incorporated by the cells. Test agent response is compared to a positive control of cell wells with culture media only to determine the IC50. IC50 is the concentration of test compound required to inhibit fifty percent of the incorporation of ^3 H-thymidine into proliferating cells not exposed to test agent. Uptake of ^3 H-thymidine is a standard test for measuring the metabolism of cells. Cells which are actively proliferating take up ^3 H-thymidine, whereas cells that are not proliferating take up ^3 H-thymidine at much slower rates or not at all. Test agents that inhibit the uptake of ^3 H-thymidine thus slow the growth of cells.

Assay [2] deals with MCF-7/ADR adriamycin resistant line of MCF-7 cells. Description: Human tumor growth inhibition, 3H-thymidine incorporation, MCF-7/ADR. The assay is classed as cell-based. The conditions noted are these: NCI/ADR-RES, 3H-thymidine uptake.
The test system of assay [3] is 8226 human myeloma cell line. Briefly: Human tumor growth inhibition, 3H-thymidine incorporation, 8226. The conditions noted are these: read-out: IC50 8226. The assay is classed as cell-based.
Excerpt: as §1, §2

Assay [4] concerns 8226/ADR adriamycin resistant line of 8226 cells. Description: Human tumor growth inhibition, 3H-thymidine incorporation, 8226/ADR. The conditions noted are these: 8226/ADR vs 8226. Type of assay: cell-based.
Excerpt: as §1, §2

For assay [5] the test system is unchanged. Described as above. The assay is classed as cell-based. The conditions noted are these: 3H-thymidine uptake.
Assay [6] deals with MCF-7/ADR adriamycin resistant line of MCF-7 cells. Description: Human tumor growth inhibition, 3H-thymidine incorporation, MCF-7/ADR. Type of assay: cell-based. The conditions noted are these: MCF-7/ADR vs MCF-7.
Excerpt: as §1, §2

Assay [7] concerns 8226/MT Mitoxantrone resistant line of 8226 cells. Description: Human tumor growth inhibition, 3H-thymidine incorporation, 8226/MT. The conditions noted are these: for Resistance Ratio (8226/MT): 8226/MT vs 8226; for IC50: Homo sapiens, read-out: IC50 8226/MT.

Where a name gives a salt, the structure may show the parent alone. Read-outs that look alike come from different tables or passages of the source.

Compound `CCN(CC)CC(O)CNc1ccc(NCC(O)CO)c2c1C(=O)c1ccccc1C2=O` (stereo not drawn) [1c-1 (HCl), 1-(3-Diethyl-2-Hydroxypropylamino)-4-(2,3-Dihydroxypropylamino)-9, 10-Anthracenedione Hydrochloride Salt] came in with an IC50 against protein kinase C of 180 µM.
Turning to `CCN(CC)CC(O)CNc1ccc(NCC(O)CCl)c2c1C(=O)c1ccccc1C2=O` (stereo not drawn) [1a-1 (base), 1-(3-diethylamino-2-hydroxypropylamino)-4-(chloro-2-hydroxypropylamino)-9,10 anthracenedione], the IC50 against protein kinase C was 180 µM; in the assay on human neutrophils (Homo sapiens, Neutrophil), greater than 6.25 µM.
On to `COc1cccc2c1C(=O)c1c(O)c3c(c(O)c1C2=O)C[C@@](O)(C(=O)CO)C[C@@H]3O[C@H]1C[C@H](N)[C@H](O)[C@H](C)O1` [ADR, reference compound], for which the IC50 in [1] was 0.02 µM; in assay [2], 4 µM; in assay [3], 0.05 µM; in [5], 0.57 µM; in [7] it was 0.05 µM. Moreover, in [4], the “Resistance Ratio (8226/ADR)” value is given as 11.4. Besides, in [6], the “Resistance Ratio (IC50 MCF-7/ADR to IC50 MCF-7)” value amounted to 200. The “Resistance Ratio (8226/MT)” value in assay [7] turned out to be 1.
On protein kinase C, `O=C1c2ccccc2C(=O)c2c(NCC(O)CNCc3ccccc3)ccc(NCC(O)CCl)c21` (stereo not drawn) [1a-3 (HCl)] showed an IC50 of 110 µM.
On the same count and under the same terms, to `CCCNCC(O)CNc1ccc(NCC(O)CCl)c2c1C(=O)c1ccccc1C2=O` (stereo not drawn) [1a-2 (HCl)] belongs 160 µM.
As to `CCCNCC(O)CNc1ccc(NCC(O)CCl)c2c1C(=O)c1ccccc1C2=O` (stereo not drawn) [Compound 1a-2], the IC50 in [1] (3H-thymidine uptake) was 7.4 µM; in [2], 16 µM; in assay [3] (3H-thymidine uptake) it was 10.2 µM; in assay [5], 14.1 µM. Moreover, the “Resistance Ratio (8226/ADR)” value in assay [4] stood at 1.38. Besides, the “Resistance Ratio (IC50 MCF-7/ADR to IC50 MCF-7)” value in assay [6] is listed as 2.2.
On to `CCN(CC)CC(O)CNc1ccc(NCC(O)CCl)c2c1C(=O)c1ccccc1C2=O` (stereo not drawn) [1a-1 (HCl), 1-(3-Diethylamino-2-Hydroxypropylamino)-4-(3-Chloro-2-Hydroxypropylamino)-9, 10-Anthracenedione Hydrochloride Salt], for which the IC50 on protein kinase C (Hydrochloride Salt) is 230 µM; at protein kinase C (listed as 1a-1 (HCl salt), Hydrochloride Salt), 230 µM; in the assay with human neutrophils (Hydrochloride Salt) it was greater than 12.5 µM.
With `O=C1c2c(O)ccc(O)c2C(=O)c2c(NCCNCCO)ccc(NCCNCCO)c21` [MT, reference compound], the IC50 was found to be 0.005 µM in assay [1] (3H-thymidine uptake); 4 µM in assay [2]; 0.03 µM in assay [3] (3H-thymidine uptake); 0.18 µM in assay [5]; 0.105 µM in [7]. Besides, the “Resistance Ratio (8226/ADR)” value in assay [4] turned out to be 6. Moreover, in [6], the “Resistance Ratio (IC50 MCF-7/ADR to IC50 MCF-7)” value is given as 800. Besides, the “Resistance Ratio (8226/MT)” value in assay [7] amounted to 3.5.
Turning to `CCN(CC)CC(O)CNc1ccc(NCC(O)CO)c2c1C(=O)c1ccccc1C2=O` (stereo not drawn) [Compound 1c-1], the IC50 in [3] (3H-thymidine uptake) came out at 18 µM; in assay [5] it was 25 µM. In assay [4], the “Resistance Ratio (8226/ADR)” value was determined as 1.4.
Take `O=C1c2ccccc2C(=O)c2c(NCC(O)CNCc3ccccc3)ccc(NCC(O)CCl)c21` (stereo not drawn) [Compound 1a-3]: the IC50 came out at 7.4 µM in [1] (3H-thymidine uptake), 14.1 µM in assay [2], 15 µM in assay [3] (3H-thymidine uptake) and 16.3 µM in [5]. Moreover, the “Resistance Ratio (8226/ADR)” value in assay [4] worked out at 1.08. Moreover, in assay [6], the “Resistance Ratio (IC50 MCF-7/ADR to IC50 MCF-7)” value is 1.9.
